Among the test systems are CCRF-CEM leukemia; MDA-MB-435; LOX IMVI melanoma; KM12 colon; MALME-3M melanoma; A549 NSCLC; M14 melanoma; SK-MEL-28 melanoma; NCI-H23 lung; MOLT-4 leukemia.
Common to all, as to assay: DTP human tumour cell line panel, 48 h

Several values for one entry are separate records, joined by “and”; a condition that tells them apart may be missing. Identical values can stand only once.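 The compound was tested at five concentrations on cells cultured in 96-well plates, with a 48-hour exposure period. GI50 marks 50% less growth. At the TGI there is no net growth.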 Bounds are passed on as bounds.

Regarding `CONC(C)=O`, the total growth inhibition concentration (TGI) in the test with CCRF-CEM leukemia, with MDA-MB-435, in the test on LOX IMVI melanoma, with KM12 colon, with MALME-3M melanoma and in the test on A549 NSCLC was more than 100 µM each time. Besides, the concentration for total growth inhibition (TGI) with M14 melanoma, in the test with SK-MEL-28 melanoma, in the test with NCI-H23 lung and in the test on MOLT-4 leukemia was more than 100 µM each time.
In the case of `CCCCCCCCC/C(=N\NC(=O)c1ccncc1)c1ccc(O)c(O)c1O`, the GI50 (commonly the concentration at which growth is held to half of that of the control) is 0.0426 µM in the test with CCRF-CEM leukemia; 456 nM with MDA-MB-435; 93.7 nM in the test on LOX IMVI melanoma; 0.348 µM in the test on KM12 colon; 491 nM in the test on MALME-3M melanoma; 0.302 µM with A549 NSCLC. Moreover, the GI50 with M14 melanoma was 175 nM; in the test with SK-MEL-28 melanoma it was 0.384 µM; with NCI-H23 lung, 393 nM; with MOLT-4 leukemia it was 246 nM. Also, the TGI – broadly, the concentration giving total growth inhibition – in the test with CCRF-CEM leukemia is 3.63 µM; with MDA-MB-435, more than 100 µM; in the test on LOX IMVI melanoma it was 11.9 µM; with KM12 colon, more than 100 µM; with MALME-3M melanoma it was more than 100 µM; with A549 NSCLC, more than 100 µM. In addition, the TGI is 1.14 µM in the test with M14 melanoma, more than 100 µM in the test with SK-MEL-28 melanoma, 29.1 µM with NCI-H23 lung and 25.3 µM in the test on MOLT-4 leukemia.
Take `CN(C)CCCCC(C(=O)CBr)(c1ccccc1)c1ccccc1`: the GI50 with CCRF-CEM leukemia is 2.06 µM; in the test on MDA-MB-435, 2450 nM; in the test with LOX IMVI melanoma, 1440 nM; in the test with KM12 colon it was 7.57 µM; in the test with MALME-3M melanoma, 1440 nM; in the test with A549 NSCLC it was 4.93 µM. Also, the GI50 with M14 melanoma was 1500 nM; with SK-MEL-28 melanoma, 1.77 µM; with NCI-H23 lung, 2810 nM; in the test on MOLT-4 leukemia, 1920 nM. Further, the concentration for total growth inhibition (TGI) with CCRF-CEM leukemia is 6.45 µM; in the test with MDA-MB-435, 10.5 µM; in the test on LOX IMVI melanoma, 2.99 µM; in the test with KM12 colon, 20.7 µM; with MALME-3M melanoma, 3.62 µM; with A549 NSCLC, 18.8 µM. The TGI is 3.95 µM with M14 melanoma, 3.49 µM with SK-MEL-28 melanoma, 10.8 µM with NCI-H23 lung and 5.67 µM with MOLT-4 leukemia.
Regarding `Cc1ccc(NC(=O)c2cc3ccccc3c(N=Nc3cc(S(=O)(=O)O)ccc3O)c2O)c(C)c1`, the concentration for total growth inhibition (TGI) with CCRF-CEM leukemia is 19.6 µM; with MDA-MB-435, more than 100 µM; with LOX IMVI melanoma, more than 100 µM; with KM12 colon, 53.9 µM; in the test on MALME-3M melanoma, 63.8 µM; with A549 NSCLC, 80.9 µM. Also, the TGI with M14 melanoma was 37.4 µM; in the test with SK-MEL-28 melanoma, more than 100 µM; in the test on NCI-H23 lung, 56.6 µM; with MOLT-4 leukemia, more than 100 µM.
As to `COC(=O)C1=COC(C)C2CN3CCc4c([nH]c5cc(OC)c(OC)cc45)C3CC12` (stereo not drawn), the GI50 is 41.7 µM and 13.6 µM in the test with CCRF-CEM leukemia; > 100 µM and 37.2 µM with KM12 colon; > 100 µM and 34.2 µM in the test on SK-MEL-28 melanoma. Besides, the concentration for total growth inhibition (TGI) in the test on CCRF-CEM leukemia, with MDA-MB-435, in the test on LOX IMVI melanoma, in the test on KM12 colon, in the test with MALME-3M melanoma and in the test with A549 NSCLC was more than 100 µM throughout. Also, the TGI with M14 melanoma was more than 100 µM; in the test with SK-MEL-28 melanoma, more than 100 µM; with NCI-H23 lung it was more than 100 µM; in the test on MOLT-4 leukemia it was > 100 µM and 79.1 µM.
As for `O=[N+]([O-])c1ccc(C2CC(c3ccccc3)=Nc3ccccc3S2)cc1` (stereo not drawn), the GI50 is 4.66 µM in the test with CCRF-CEM leukemia; more than 100000 nM in the test on MDA-MB-435; 3680 nM in the test on LOX IMVI melanoma; 6.13 µM in the test with KM12 colon; more than 100000 nM in the test with MALME-3M melanoma; more than 100 µM in the test on A549 NSCLC. The GI50 with M14 melanoma is 51000 nM; in the test with SK-MEL-28 melanoma, more than 100 µM; in the test on NCI-H23 lung, more than 100000 nM; in the test with MOLT-4 leukemia, 6040 nM. Moreover, the TGI was more than 100 µM in the test with CCRF-CEM leukemia; more than 100 µM with MDA-MB-435; more than 100 µM in the test with LOX IMVI melanoma; 97.5 µM in the test on KM12 colon; more than 100 µM with MALME-3M melanoma; more than 100 µM in the test on A549 NSCLC. Moreover, the TGI in the test on M14 melanoma, in the test with SK-MEL-28 melanoma, with NCI-H23 lung and in the test on MOLT-4 leukemia was more than 100 µM in each case.
On to `Cc1ccc(-c2cc3c4c(nc5ccccc53)C(=O)c3cccnc3-c4n2)cc1`, for which the GI50 in the test on CCRF-CEM leukemia was 8.04 µM; with MDA-MB-435, 5080 nM; in the test with LOX IMVI melanoma, 3400 nM; in the test with KM12 colon, 6.46 µM; with MALME-3M melanoma, 17800 nM; with A549 NSCLC it was 4.02 µM. Moreover, the GI50 was 4370 nM in the test on M14 melanoma, 19.1 µM in the test with SK-MEL-28 melanoma, 7030 nM in the test on NCI-H23 lung and 583 nM in the test with MOLT-4 leukemia. Moreover, the TGI was more than 100 µM with CCRF-CEM leukemia; 16 µM in the test with MDA-MB-435; 14.5 µM in the test on LOX IMVI melanoma; 25.7 µM in the test with KM12 colon; 32.6 µM in the test on MALME-3M melanoma; 16.2 µM in the test on A549 NSCLC. Moreover, the TGI in the test on M14 melanoma was 16.5 µM; with SK-MEL-28 melanoma, 41.1 µM; in the test on NCI-H23 lung, 20.9 µM; in the test with MOLT-4 leukemia, more than 100 µM.
In the case of `CCOC(=O)Nc1nc2ccc(Br)cc2s1`, the GI50 is more than 50 µM with CCRF-CEM leukemia; more than 50000 nM with MDA-MB-435; more than 50000 nM with LOX IMVI melanoma; more than 50 µM in the test on KM12 colon; more than 50000 nM in the test with MALME-3M melanoma; more than 50 µM in the test on A549 NSCLC. Also, the GI50 was more than 50000 nM in the test with M14 melanoma, more than 50 µM in the test on SK-MEL-28 melanoma, more than 50000 nM with NCI-H23 lung and more than 50000 nM in the test on MOLT-4 leukemia. Moreover, the concentration for total growth inhibition (TGI) in the test on CCRF-CEM leukemia, in the test with MDA-MB-435, with LOX IMVI melanoma, in the test on KM12 colon, with MALME-3M melanoma and in the test on A549 NSCLC was more than 50 µM each time. Also, the total growth inhibition concentration (TGI) in the test on M14 melanoma, with SK-MEL-28 melanoma, with NCI-H23 lung and in the test with MOLT-4 leukemia was more than 50 µM each time.
As to `CC1(C)CC[C@]2(C(=O)O)CC[C@]3(C)C(=CC[C@@H]4[C@@]5(C)C[C@H](O)[C@H](O)[C@@](C)(C(=O)O)[C@@H]5CC[C@]43C)[C@@H]2C1`, the TGI in the test with CCRF-CEM leukemia, with MDA-MB-435, in the test with LOX IMVI melanoma, in the test on KM12 colon, in the test on MALME-3M melanoma and in the test on A549 NSCLC was more than 100 µM throughout. Moreover, the TGI with M14 melanoma, in the test with SK-MEL-28 melanoma, in the test on NCI-H23 lung and in the test on MOLT-4 leukemia was more than 100 µM throughout.
In the case of `S=C(NCCNC(=S)[S][Sn]([c]1ccccc1)([c]1ccccc1)[c]1ccccc1)[S][Sn]([c]1ccccc1)([c]1ccccc1)[c]1ccccc1`, the GI50 with CCRF-CEM leukemia was 0.0179 µM; with MDA-MB-435, 15.3 nM; in the test on LOX IMVI melanoma, 15.2 nM; with KM12 colon it was 0.0197 µM; in the test on MALME-3M melanoma it was 68.7 nM; in the test with A549 NSCLC, 0.0231 µM. Further, the concentration for 50% growth inhibition (GI50) is 26.7 nM in the test with M14 melanoma, 0.0237 µM in the test with SK-MEL-28 melanoma, 27.3 nM with NCI-H23 lung and 22.2 nM in the test on MOLT-4 leukemia. Also, the TGI in the test with CCRF-CEM leukemia stood at 0.657 µM; in the test with MDA-MB-435, 0.0559 µM; in the test with LOX IMVI melanoma it was 0.0541 µM; in the test on KM12 colon, 0.0652 µM; in the test on MALME-3M melanoma, 0.201 µM; with A549 NSCLC it was 0.0938 µM. Besides, the concentration for total growth inhibition (TGI) in the test with M14 melanoma worked out at 0.0976 µM; in the test on SK-MEL-28 melanoma, 0.0817 µM; in the test with NCI-H23 lung it was 0.119 µM; in the test with MOLT-4 leukemia, 0.309 µM.
Take `[Cl][Hg][c]1ccc(Cl)s1`: the GI50 in the test with CCRF-CEM leukemia was 0.326 µM; in the test on MDA-MB-435, 2080 nM; in the test on LOX IMVI melanoma it was 1530 nM; in the test on KM12 colon, 14.3 µM; in the test on MALME-3M melanoma it was 1300 nM; with A549 NSCLC it was 18.7 µM. Also, the GI50 in the test with M14 melanoma is 1550 nM; in the test with SK-MEL-28 melanoma, 1.42 µM; in the test with NCI-H23 lung it was 2690 nM; in the test on MOLT-4 leukemia it was 1640 nM. Also, the TGI in the test on CCRF-CEM leukemia turned out to be 3.99 µM; in the test with MDA-MB-435, 5.7 µM; in the test on LOX IMVI melanoma it was 3.24 µM; in the test with KM12 colon, 28 µM; in the test on MALME-3M melanoma, 2.94 µM; with A549 NSCLC, 60.9 µM. The concentration for total growth inhibition (TGI) with M14 melanoma stood at 3.17 µM; in the test with SK-MEL-28 melanoma it was 2.87 µM; in the test with NCI-H23 lung, 8.05 µM; with MOLT-4 leukemia, 6.68 µM.
In the case of `COc1ccc2c(c1)oc(=O)c1cc(OC)ccc12`, the GI50 in the test on CCRF-CEM leukemia is more than 100 µM; in the test on MDA-MB-435, more than 100000 nM; with LOX IMVI melanoma, more than 100000 nM; in the test with KM12 colon, more than 100 µM; in the test with MALME-3M melanoma it was more than 100000 nM; with A549 NSCLC it was more than 100 µM. The GI50 in the test on M14 melanoma is more than 100000 nM; in the test on SK-MEL-28 melanoma it was more than 100 µM; in the test with NCI-H23 lung it was more than 100000 nM; in the test on MOLT-4 leukemia, more than 100000 nM. For the same molecule, the TGI with CCRF-CEM leukemia, with MDA-MB-435, in the test with LOX IMVI melanoma, with KM12 colon, with MALME-3M melanoma and with A549 NSCLC was more than 100 µM throughout. Besides, the concentration for total growth inhibition (TGI) with M14 melanoma, with SK-MEL-28 melanoma, in the test with NCI-H23 lung and in the test on MOLT-4 leukemia was more than 100 µM in each case.

Source of the values: PubChem BioAssay (NCI).
